In brackets after ≈: the same amount, converted by molar mass.
What was measured:
[1] = test system: Actinomyces viscosus (ATCC #43146) and Streptococcus oralis (ATCC #35037); test: Viability via SIKT with degraded oral gel; format: cell-based; settings: for percentage of cells that are viable relative to PBS control: n = 6
Source text: For viability via SIKT, the same gel degradation procedure as described above is used to treat an overnight culture of Actinomyces viscosus (ATCC #43146) and Streptococcus oralis (ATCC #35037). […] Samples are then processed and the results are presented as a percentage of cells that are viable relative to a control sample treated with PBS alone (negative control).

[2] = Tetrahydrocurcumin solubility (saturation) in hydrogel formulations, UV 280 nm; format: physicochemical; settings: 4 °C, aqueous with cosolvent or surfactant or cyclodextrin, thermodynamic from solid; tested gels
Experimental: Tetrahydrocurcumin is a highly insoluble drug. It has water solubility of about 6 μg/mL, and this has severely limited attempts to evaluate its in vitro or in vivo potency as a drug because of the difficulty of formulating compositions which can effectively deliver it to body tissues. It is thus a useful reference for compositions intended to deliver low-solubility active agents.
A range of hydrogel formulations are prepared in cold (4° C.) deionized water. Each cold formulation liquid is loaded with tetrahydrocurcumin (0.3 mg/mL of gel) via dispersion with a Speed Mixing apparatus (FlackTek, Inc). Samples are left to interact at 4° C. for 48 hours. Formulations are centrifuged at 10,000 rpm for 60 seconds to separate undissolved active. The saturation of active is determined via UV absorbance at 280 nm.
Tetrahydrocurcumin is found to be soluble in the above tested gels at the following saturation concentrations: […]

[3] = in water; cited from earlier work

## CCO [Ethanol]
[1]; Average of Day 0-28, n = 24
  percentage of cells that are viable relative to PBS control, Average: 16.3%
[1]; Day 0, 30 seconds treatment
  percentage of cells that are viable relative to PBS control: 16.8%
[1]; Day 7, 30 seconds treatment
  percentage of cells that are viable relative to PBS control: 14.5%
[1]; Day 14, 30 seconds treatment
  percentage of cells that are viable relative to PBS control: 14.7%
[1]; Day 28, 30 seconds treatment
  percentage of cells that are viable relative to PBS control: 19.0%

## COc1cc(CCC(=O)CC(=O)CCc2ccc(O)c(OC)c2)ccc1O [Tetrahydrocurcumin]
[2]
  solubility at 48 h: 85 to 236 µg/mL (≈ 228 to 634 µM)
[3]
  water solubility: about 6 μg/mL

From US20240024233A1, “Oral Hydrogel Compositions and Uses” (Colgate-Palmolive Company, priority 2020, published 2024)
